Assay type in all cases: cell-based, human
The test system of experiment [1] is primitive streak-like mesoderm population. Briefly: Paraxial mesoderm specification in monolayer culture, flow cytometry of cell surface markers. How it is done:
FIG. 2. Characterization of paraxial mesoderm derived from hPSCs. Flow cytometric analysis of day 5 mesoderm treated with no additional factors (0 DM, no FGF), FGF, 4 μM DM, or 4 μM DM+FGF. Day 5 profiles depict KDR and PDGFRa expression, a double-positive population (gated) indicates mesoderm that has cardiac potential (20). Treatment with FGF results in less PDGFRa expression on day 5. (B) Expression of cell surface markers CD73, CD105, and PDGFR-beta on mesoderm populations on day 15 of differentiation. […] Experimental cell treatments during day 4 to day 6 include the combination of Dorsomorphin, bFGF, TGFbeta inhibitor (SB431542) in the presence or absence of the wnt pathway inhibitor IWP2. Flow cytometric analyses of CD73 and CD105, on day 15 mesoderm populations derived as indicated. (D) Gene expression analyses of day 15 mesoderm populations derived in indicated factors. Nkx2.5 is a cardiac transcription factor, Meox1 and Nkx3.2 are paraxial mesoderm and somite transcription factors. (E) Micrographs depicting 1 day old micromasses and 1 week old micromasses derived from day 15 mesoderm populations as indicated. (F) Flow cytometric analysis of cardiac troponin T (cTnT) expression in 1 week old micromasses derived from day 15 mesoderms as indicated. […] To generate chondrocytes, it is essential to first specify this PS population to a paraxial mesoderm fate. Previous studies have shown that mesoderm populations that express cell surface markers often found on mesenchymal stem cells, CD73 and CD105, have chondrogenic potential (Hwang, Kim et al. 2006). The expression of these two cell surface markers, as well as the expression of transcription factors Meox1 and Nkx3.2 combined with the lack of expression of Nkx2.5 to monitor the emergence of a paraxial mesoderm population was used. Previous experiments in the mouse ESC model system have shown the importance of inhibiting the BMP signaling pathway in the context of FGF signaling to prevent the emergence of cardiac mesoderm and promote the development of paraxial mesoderm (Craft, Ahmed et al. 2013). […] Very few cells in untreated mesoderm conditions expressed CD73 and CD105 (7.46%, FIG. 2B). […] The changes in expression of these surface markers were accompanied by the upregulation of paraxial genes Meox1 and Nkx3.2 (FIG. 2C). […] Thus, in some cell lines, the efficiency of paraxial mesoderm specification may be improved in the presence of a Wnt pathway antagonist immediately following the PS mesoderm induction phase.

Experiment [2] relates to day 15 mesoderm populations. The experiment is described as follows: Micromass assay of day 15 mesoderm populations. The protocol: FIG. 2. Characterization of paraxial mesoderm derived from hPSCs. Flow cytometric analysis of day 5 mesoderm treated with no additional factors (0 DM, no FGF), FGF, 4 μM DM, or 4 μM DM+FGF. Day 5 profiles depict KDR and PDGFRa expression, a double-positive population (gated) indicates mesoderm that has cardiac potential (20). Treatment with FGF results in less PDGFRa expression on day 5. (B) Expression of cell surface markers CD73, CD105, and PDGFR-beta on mesoderm populations on day 15 of differentiation. […] Experimental cell treatments during day 4 to day 6 include the combination of Dorsomorphin, bFGF, TGFbeta inhibitor (SB431542) in the presence or absence of the wnt pathway inhibitor IWP2. Flow cytometric analyses of CD73 and CD105, on day 15 mesoderm populations derived as indicated. (D) Gene expression analyses of day 15 mesoderm populations derived in indicated factors. Nkx2.5 is a cardiac transcription factor, Meox1 and Nkx3.2 are paraxial mesoderm and somite transcription factors. (E) Micrographs depicting 1 day old micromasses and 1 week old micromasses derived from day 15 mesoderm populations as indicated. (F) Flow cytometric analysis of cardiac troponin T (cTnT) expression in 1 week old micromasses derived from day 15 mesoderms as indicated. […] Previous studies have shown that TGFBeta/BMP signaling is required to generate chondrocyte progenitors from paraxial mesoderm. […] Following 10 days of TGFb3 treatment (day 25 total), cultures could be switched to media containing BMP4 or maintained in TGFb3 (stage 4) in order to specify subsets of chondrocytes (articular/non-hypertrophic or growth plate/hypertrophic). To determine the chondrocyte potential of the day 15 mesoderm populations, the cells were plated at high cell density in a 20 microliter volume on tissue culture treated Petri dishes for an hour (micromass) and then the ‘spot’ was submerged/covered with media. In our initial studies, the cells were ‘spotted’ in a media containing 2% fetal bovine serum. […]

For experiment [3], the system named is day 15 mesoderm populations. The experiment is described as follows: Gene expression analyses of day 15 mesoderm populations. The protocol: FIG. 2. Characterization of paraxial mesoderm derived from hPSCs. Flow cytometric analysis of day 5 mesoderm treated with no additional factors (0 DM, no FGF), FGF, 4 μM DM, or 4 μM DM+FGF. Day 5 profiles depict KDR and PDGFRa expression, a double-positive population (gated) indicates mesoderm that has cardiac potential (20). Treatment with FGF results in less PDGFRa expression on day 5. (B) Expression of cell surface markers CD73, CD105, and PDGFR-beta on mesoderm populations on day 15 of differentiation. […] Experimental cell treatments during day 4 to day 6 include the combination of Dorsomorphin, bFGF, TGFbeta inhibitor (SB431542) in the presence or absence of the wnt pathway inhibitor IWP2. Flow cytometric analyses of CD73 and CD105, on day 15 mesoderm populations derived as indicated. (D) Gene expression analyses of day 15 mesoderm populations derived in indicated factors. Nkx2.5 is a cardiac transcription factor, Meox1 and Nkx3.2 are paraxial mesoderm and somite transcription factors. (E) Micrographs depicting 1 day old micromasses and 1 week old micromasses derived from day 15 mesoderm populations as indicated. (F) Flow cytometric analysis of cardiac troponin T (cTnT) expression in 1 week old micromasses derived from day 15 mesoderms as indicated. […] To generate chondrocytes, it is essential to first specify this PS population to a paraxial mesoderm fate. […]

The source of these data is US10736923B2, “Methods and compositions for generating chondrocyte lineage cells and/or cartilage like tissue” (UNIVERSITY HEALTH NETWORK, priority 2013, dated 2020).

For “bFGF: basic fibroblast growth factor, FGF agonist”, the “expression patterns of PDGFRa and KDR” value in experiment [1] (T5, versus untreated mesoderm, DM T4 to T6) is “did not change the PDGFRa/KDR population drastically”. The “proportion of cells expressing CD73 and CD105” value in experiment [1] (day 15, FGF day 4 to day 15, DM T4-T6) came out at 52%. Further, the “PDGF receptor beta expression on CD73-positive cells” value in experiment [1] (day 15 monolayers) is “also expressed the PDGF receptor beta”. The “generation of cardiomyocytes (cTnT)” value in experiment [2] (1 week of micromass culture) is given as “did not generate any cardiomyocytes”. Moreover, the cartilage-like tissue formation entry in experiment [2] (after 4 weeks of micromass culture, treatment in monolayer phase) is on record as “did not maintain a cartilage tissue phenotype”. Moreover, the “adherence and survival in micromass culture” value in experiment [2] (first week of micromass culture) is “survived the first week of micromass culture as an adherent layer of cells”. In addition, in experiment [3], the Meox1 expression result is “upregulation” and the Nkx3.2 expression entry is recorded as “upregulation”.
